Molecules are shown by their SMILES.

The target in the assay is T1, Recombinant human BRD4 containing dual bromodomains (BRD4-BD12 (1-477)) (Homo sapiens, UniProt O60885).
T1 construct: Recombinant human BRD4 containing dual bromodomains (BRD4-BD12 (1-477)); made in house; host or cells: E. coli BL21-CodonPlus (DE3), modified pET vector
Description: BRD4 Alphascreen binding assay. How it is done:
BRD4 Alphascreen Binding Assay
Binding of compounds of Formula (I) with BRD4 was assessed using Alphascreen binding assay. The inhibition of the interaction between BRD4 and its acetylated target protein was measured quantitatively using recombinant BRD4 protein, an acetylated Histone 4 peptide, and AlphaScreen™ technology. In absence of inhibition of the BRD4 protein bound to AlphaScreen™ nickel chelate acceptor beads can interact with the acetylated Histone 4 peptide which was immobilized by the AlphaScreen™ Streptavidin coated beads. This interaction brings donor and acceptor beads in proximity. The close proximity allows the singlet oxygen produced by laser excitation of the donor beads to reach the acceptor beads and generate a luminescence signal. BRD4 inhibitors result in a decrease in the proximity signal through an inhibition of the BRD4—acetylated peptide interaction.
Recombinant human BRD4 containing dual bromodomains (BRD4-BD12 (1-477)) was prepared and purified as described in protein expression and purification session. The peptide was human Histone H41-21K5AcK8AcK12AcK16Ac-Biotin (Anaspec CA, USA).
Protocol for BRD4 assay: All components are prepared in buffer composed of 50 mM HEPES pH 7.5, 50 mM NaCl, 0.01% BSA, 0.01% Triton X-100, 2 mM DTT. Test compounds and DMSO vehicle are diluted 1:50 in buffer and a 4 μL volume was transferred to an Alphaplate. 5.5 μL of Bromodomain protein and 5.5 μL of peptide are added to wells containing 4 μL of various concentrations of test compounds of Formula (I) or DMSO vehicle in an Alphaplate (PerkinElmer GA, USA) and incubated for 1 hour at room temperature. 5 μL donor and acceptor bead mixture was then added with final concentrations of 7.5 μg/ml. 30 minutes after bead addition, Alpha signal was read on the Envision spectrometer (λEx 680 nm, λEm 520-620 nm). Final concentrations of bromodomain proteins and peptide are as shown below.
All data were normalized to the mean of 16 high and 16 low control wells on each plate. A four parameter curve fit of the following formula was then applied: Y=A+((B−A)/(1+((C/x)^D))) Where ‘A’ is the minimum, ‘B’ is the maximum, ‘C’ is the IC50 and ‘D’ is the Hill slope. Protein Expression and Purification
Recombinant human BRD4 containing dual bromodomains (BRD4-BD12 (1-477)) was expressed in E. coli cells (in a modified pET vector) with an N-terminal six-His tag and purified using a combination of both IMAC (Ni-affinity) and size exclusion chromatography steps.
Recombinant BRD4 was expressed using the E. coli strain BL21-CodonPlus (DE3) (Agilent Technologies CA, USA). Cells were grown in Terrific Broth (TB) media to an OD600 of 2.0 at 37° C. at which temperature was reduced to 18° C., protein was induced with 0.1 mM isopropyl-β-D-thiogalactopyranoside (“IPTG”) for 12-18 hours and harvested by centrifugation at 8000×g for 20 minutes. Cells were re-suspended in 40 mM Tris-HCl pH 8.0, 0.5 M NaCl, 25 mM Imidazole, 5% glycerol, 1/200 vol. Protease Inhibitor Cocktail Set III (Calbiochem), 5 mM beta-mercaptoethanol (“BME”), 0.5 mg/mL Lysozyme, and 0.5 mg/mL DNaseI, incubated on ice for 30 minutes and lysed with a cell disruptor (MicroFluidics MA, USA). The lysate was clarified by centrifugation at 20,000×g for 2 hours. The protein was captured with Ni-NTA resin (Life Technologies, USA). Contaminating proteins were washed off with 40 mM Tris-HCl pH 8.0, 0.5 M NaCl, 25 mM Imidazole, 5% glycerol, and 5 mM BME. Following 3× wash steps, protein was eluted step wise into wash buffer containing 50, 100, 150, 500 mM Imidazole. The protein was further purified using Gel Filtration column 16/60 Superdex 200 (GE Biosciences NJ, USA) in 10 mM HEPES pH 8.0, 150 mM NaCl, and 5 mM DTT. Glycerol was added to a final concentration of 12% and the protein was aliquoted and flash-frozen in liquid Nitrogen.
A general note: Bead proximity is the source of the signal in Alpha formats.
As to `Cc1ccc(S(=O)(=O)n2cc(-c3ccc(C(=O)O)cc3)c3cc(-c4c(C)noc4C)cnc32)cc1` [P-0006, 4-(5-(3,5-dimethylisoxazol-4-yl)-1-tosyl-1H-pyrrolo[2,3-b]pyridin-3-yl)benzoic acid], the IC50 lay within 8 to 1000 µM.
Then `Cc1noc(C)c1-c1cnc2c(c1)c(-c1ccc(C(=O)O)cc1)cn2C(c1ccccn1)C1CC1` (stereo not drawn) [P-0007, 4-(1-(cyclopropyl(pyridin-2-yl)methyl)-5-(3,5-dimethylisoxazol-4-yl)-1H-pyrrolo[2,3-b]pyridin-3-yl)benzoic acid], with 8 to 1000 µM; and `Cc1noc(C)c1-c1cnc2c(c1)c(-c1ccc(C(=O)O)cc1)cn2C(c1ccccn1)C1CCC1` (stereo not drawn) [P-0008, 4-(1-(cyclobutyl(pyridin-2-yl)methyl)-5-(3,5-dimethylisoxazol-4-yl)-1H-pyrrolo[2,3-b]pyridin-3-yl)benzoic acid], with 8 to 1000 µM; and `Cc1noc(C)c1-c1cnc2c(CC3CCC3)cn(-c3ccc(C(=O)O)cn3)c2c1` [P-0009, 6-(3-(cyclobutylmethyl)-6-(3,5-dimethylisoxazol-4-yl)-1H-pyrrolo[3,2-b]pyridin-1-yl)nicotinic acid], with 8 to 1000 µM.
For the compound `Cc1noc(C)c1-c1cnc2c(CC3CC3)cn(-c3ccc(C(=O)O)cn3)c2c1` [P-0010, 6-(3-(cyclopropylmethyl)-6-(3,5-dimethylisoxazol-4-yl)-1H-pyrrolo[3,2-b]pyridin-1-yl)nicotinic acid], the IC50 was 8 to 1000 µM.
Then `Cc1noc(C)c1-c1cnc2c(Cc3ccccn3)cn(-c3ccc(C(=O)O)cn3)c2c1` [P-0011, 6-(6-(3,5-dimethylisoxazol-4-yl)-3-(pyridin-2-ylmethyl)-1H-pyrrolo[3,2-b]pyridin-1-yl)nicotinic acid], with 8 to 1000 µM.
Then `Cc1noc(C)c1-c1cnc2c(c1)c(-c1ccc(C(=O)O)cc1)cn2C(c1ccccn1)c1ccccn1` [P-0012, 4-(1-(di(pyridin-2-yl)methyl)-5-(3,5-dimethylisoxazol-4-yl)-1H-pyrrolo[2,3-b]pyridin-3-yl)benzoic acid], with 8 to 1000 µM; and `Cc1noc(C)c1-c1cnc2c(c1)c(-c1ccc(C(=O)O)cc1F)cn2[C@@H](C)c1ccccn1` [P-0097, (S)-4-(5-(3,5-dimethylisoxazol-4-yl)-1-(1-(pyridin-2-yl)ethyl)-1H-pyrrolo[2,3-b]pyridin-3-yl)-3-fluorobenzoic acid], with 8 to 1000 µM; and `COc1ccc(C(=O)O)cc1-n1cc(CC2CCC2)c2ncc(-c3c(C)noc3C)cc21` [P-0098, 3-(3-(cyclobutylmethyl)-6-(3,5-dimethylisoxazol-4-yl)-1H-pyrrolo[3,2-b]pyridin-1-yl)-4-methoxybenzoic acid], with 1 to 8 µM.
To `Cc1noc(C)c1-c1cnc2c(C(=O)c3cccc(OC(F)F)c3)cn(-c3ccnc(C(=O)O)c3)c2c1` [P-0099, 4-(3-(3-(difluoromethoxy)benzoyl)-6-(3,5-dimethylisoxazol-4-yl)-1H-pyrrolo[3,2-b]pyridin-1-yl)picolinic acid] belongs 1 to 8 µM; to `Cc1noc(C)c1-c1cnc2c(Cc3cccc(OC(F)F)c3)cn(-c3ccnc(C(=O)O)c3)c2c1` [P-0100, 4-(3-(3-(difluoromethoxy)benzyl)-6-(3,5-dimethylisoxazol-4-yl)-1H-pyrrolo[3,2-b]pyridin-1-yl)picolinic acid], 1 to 8 µM.
For the compound `Cc1noc(C)c1-c1cnc2c(c1)c(-c1cccc(C(=O)O)c1)cn2CC1CC(F)(F)C1` [P-0101, 3-(1-((3,3-difluorocyclobutyl)methyl)-5-(3,5-dimethylisoxazol-4-yl)-1H-pyrrolo[2,3-b]pyridin-3-yl)benzoic acid], the IC50 lay within 8 to 1000 µM.
For `Cc1noc(C)c1-c1cnc2c(c1)c(-c1cccc(C(=O)O)c1)cn2CC1(C)COC1` [P-0102, 3-(5-(3,5-dimethylisoxazol-4-yl)-1-((3-methyloxetan-3-yl)methyl)-1H-pyrrolo[2,3-b]pyridin-3-yl)benzoic acid], the IC50 is 8 to 1000 µM.
Then `COc1cc(C(=O)O)cc(OC)c1-c1cn([C@@H](C)c2ccccn2)c2ncc(-c3c(C)noc3C)cc12` [P-0103, (S)-4-(5-(3,5-dimethylisoxazol-4-yl)-1-(1-(pyridin-2-yl)ethyl)-1H-pyrrolo[2,3-b]pyridin-3-yl)-3,5-dimethoxybenzoic acid], with 8 to 1000 µM; and `Cc1noc(C)c1-c1cnc2c(CC3CCC3)cn(-c3ccc(C#N)c(C(=O)O)c3)c2c1` [P-0104, 2-cyano-5-(3-(cyclobutylmethyl)-6-(3,5-dimethylisoxazol-4-yl)-1H-pyrrolo[3,2-b]pyridin-1-yl)benzoic acid], with 8 to 1000 µM.
Turning to `Cc1noc(C)c1-c1cnc2c(CC3CCC3)cn(-c3ccc(C(=O)O)c(C#N)c3)c2c1` [P-0105, 2-cyano-4-(3-(cyclobutylmethyl)-6-(3,5-dimethylisoxazol-4-yl)-1H-pyrrolo[3,2-b]pyridin-1-yl)benzoic acid], the IC50 lay within 8 to 1000 µM.
Then `Cc1noc(C)c1-c1cnc2c(c1)c(-c1cncc(C(=O)O)n1)cn2[C@@H](C)c1ccccn1` [P-0106, (S)-6-(5-(3,5-dimethylisoxazol-4-yl)-1-(1-(pyridin-2-yl)ethyl)-1H-pyrrolo[2,3-b]pyridin-3-yl)pyrazine-2-carboxylic acid], with 8 to 1000 µM; and `Cc1noc(C)c1-c1cnc2c(c1)c(-c1nccc(C(=O)O)n1)cn2[C@@H](C)c1ccccn1` [P-0107, (S)-2-(5-(3,5-dimethylisoxazol-4-yl)-1-(1-(pyridin-2-yl)ethyl)-1H-pyrrolo[2,3-b]pyridin-3-yl)pyrimidine-4-carboxylic acid], with 8 to 1000 µM.
As for `CCOc1cc(C(=O)O)cc(F)c1-n1cc(CC2CCC2)c2ncc(-c3c(C)noc3C)cc21` [P-0108, 4-(3-(cyclobutylmethyl)-6-(3,5-dimethylisoxazol-4-yl)-1H-pyrrolo[3,2-b]pyridin-1-yl)-3-ethoxy-5-fluorobenzoic acid], the IC50 is 1 to 8 µM.
To `CCOc1cc(C(=O)O)cc(OCC)c1-n1cc(CC2CCC2)c2ncc(-c3c(C)noc3C)cc21` [P-0109, 4-(3-(cyclobutylmethyl)-6-(3,5-dimethylisoxazol-4-yl)-1H-pyrrolo[3,2-b]pyridin-1-yl)-3,5-diethoxybenzoic acid] belongs 1 to 8 µM; to `Cc1noc(C)c1-c1cnc2c(CC3CCC3)cn(-c3ccc(C(=O)O)c4ccoc34)c2c1` [P-0110, 7-(3-(cyclobutylmethyl)-6-(3,5-dimethylisoxazol-4-yl)-1H-pyrrolo[3,2-b]pyridin-1-yl)benzofuran-4-carboxylic acid], 1 to 8 µM.
Consider `Cc1noc(C)c1-c1cnc2c(CC3CCC3)cn(-c3c(OC(C)C)cc(C(=O)O)cc3OC(C)C)c2c1` [P-0111, 4-(3-(cyclobutylmethyl)-6-(3,5-dimethylisoxazol-4-yl)-1H-pyrrolo[3,2-b]pyridin-1-yl)-3,5-diisopropoxybenzoic acid], for which the IC50 was in the range of 8 to 1000 µM.
As to `Cc1noc(C)c1-c1cnc2c(c1)c(-c1ccc(C(=O)O)cc1OC(C)C)cn2[C@@H](C)c1ccccn1` [P-0112, (S)-4-(5-(3,5-dimethylisoxazol-4-yl)-1-(1-(pyridin-2-yl)ethyl)-1H-pyrrolo[2,3-b]pyridin-3-yl)-3-isopropoxybenzoic acid], the IC50 lay within 8 to 1000 µM.
Then `CCCOc1cc(C(=O)O)ccc1-c1cn([C@@H](C)c2ccccn2)c2ncc(-c3c(C)noc3C)cc12` [P-0113, (S)-4-(5-(3,5-dimethylisoxazol-4-yl)-1-(1-(pyridin-2-yl)ethyl)-1H-pyrrolo[2,3-b]pyridin-3-yl)-3-propoxybenzoic acid], with 8 to 1000 µM.

As a reminder, the IC50 is the concentration at which inhibition is half-maximal.

Values taken from patent publication US11446287B2, “Compounds and methods for EP300 or CBP modulation and indications therefor” (Opna Immuno-Oncology SA, priority 2019, dated 2022).
